Results from patent US20200247855A1, “THERAPY AND DIAGNOSTICS” (OXFORD UNIVERSITY INNOVATION LIMITED, priority 2017, published 2020).
No end group written: not given here.

Columns and labels:
CCL8_HUMAN = biological target: T1, CCL8_HUMAN (Homo sapiens, UniProt P80075); assay: Neutralisation of chemokine induced THP-1 cell migration; type: cell-based
T1 sequence (P80075 24-99): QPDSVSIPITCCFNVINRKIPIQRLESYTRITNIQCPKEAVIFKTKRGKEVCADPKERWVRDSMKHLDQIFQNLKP
Method: Table 1. Tick CKBPs described in PCT/GB2017/050563 and [17]. Tick peptide sequences isolated in yeast surface display fluorescent-activated cell sorting (FACS) screens using a labelled chemokine. Identity with Evasin-1, 4 or 3 was calculated using BLAST. Abbreviations: IXORI—Ixodes ricinus, RHISA—Rhipicephalus sanguineus, AMBMA—Amblyomma maculatum, AMBPA—Amblyomma parvum, AMBTR—Amblyomma triste, AMBAM—Amblyomma americanum, AMBCA—Amblyomma cajennense, RHIPU—Rhipicephalus pulchellus. Table 2A-C. Binding characteristics of tick CKBPs previously disclosed (PCT/GB2017/050563 and [17]). All members of the human chemokine family[164] are listed in column 1. Binding to human chemokines was determined for 14 tick CKBPs using biolayer interferometry (BLI) with calculated Kd shown as Molar (Moles/Litre). Binding data for 17 other novel tick CKBPs was assayed using yeast surface display[17,166],with positive binding results shown as “YES”. For biolayer interferometry, His-tagged purified tick CKBP was bound to a Ni-NINTA sensor on an OctetRed® 384 system, and then binding to each chemokine listed (with the exception of CCL25, CCL26, CXCL16, CXCL17, CXCL4L1, XCL2) was assayed in a cross-binding screen at a chemokine concentration of 300 nM as described. For those chemokines showing binding to a tick CKBP in the cross-binding screen, binding assays were repeated using different doses of chemokine. Association, equilibrium and dissociation data were analysed using Octet software to create corresponding fitted curves, and used to calculate Kd. For yeast surface display, (YSD) background fluorescence was controlled for by using either an empty vector or by omitting the chemokine (i.e. using streptavidin-Alexa647 alone). An arbitrary threshold of >3 fold over background mean fluorescence intensity was chosen to describe confirmed re-tests. Where binding was detected data are indicated as “YES”. […] For yeast surface display data, empty cells represent chemokines that were not tested. Binding data published in relation to previously described tick CKBPs (Evasins-1, 4 and 3) is also shown for comparison in each of FIGS. 2A-C, with the relevant data obtained from publications: [20-22,32]. Table 3: Neutralisation of human chemokines by tick CKBPs previously disclosed (PCT/GB2017/050563 and [17]). Neutralising activity was determined using a quantitative THP1 cell migration assay in a 96-well Boyden chamber with chemokine in the bottom chamber as described. Cells migrating through to the bottom chamber at 4 hours were counted using flow cytometry in a 96 well plate format. IC50 for neutralisation was determined at the chemokine EC80 dose as determined using a range of tick CKBP concentrations. Data was analysed using GraphPad Prism to determine IC50, which is shown as Molar (Moles/Litre). Empty cells represent experiments not done. Table 4—Other previously described tick CKBPs. Tick CKBPs that were also described in PCT/GB2017/050563 and Singh et al. are indicated in “Notes”. Table 5.—Novel tick CKBPs of the invention. Table 6. […] The peptide sequence prefix indicates the identity, and suffix indicate the tick species as follows: AMBCA, Amblyomma cajennense and IXORI, Ixodes ricinus. […] Individual yeast clones recovered from the library were re-tested using a FACS (fluorescence activated cell sorting), experiment. The binding of the peptide to the chemokine was assayed by measuring the percent (%), of yeast cells expressing the given peptide that exceeded a background threshold set by measuring the fluorescence of the yeast library pool treated with streptavidin-[…] alone. When more than one independent yeast clone was isolated for a given peptide-chemokine combination, the mean percent shift was calculated and reported in column 3.

[1] = biological target: T2, His-tagged P672-biotinylated CCL3 interaction (Homo sapiens, UniProt P10147); assay: AlphaScreen disruption of P672:chemokine interaction; type: binding; conditions: AlphaScreen dose-response
T2 construct: host or cells: P672: HEK293F (in-house); biotinylated CCL3: not described
T2 sequence (P10147 24-92): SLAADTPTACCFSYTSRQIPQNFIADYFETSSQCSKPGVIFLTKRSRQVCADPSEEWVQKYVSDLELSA
Method: (§1) B-D. Effect of indicated peptides at a concentration of 100 μM on a His-tagged P672-biotinylated CCL8, CCL2 or CCL3 interaction respectively using an AlphaScreen assay. In each panel. […] Data are presented as mean±s.e.m. of three independent experiments, shown as individual data points.
(§2) Data are shown as mean of two technical replicates. Curves were fitted with 4 parameters to estimate IC50.
(§3) The binding of these peptides to CCL8 was assayed by examining their ability to disrupt the P672:CCL8 interaction using an AlphaScreen assay (FIG. 20E, H). […] BK1 derivatives were tested for their ability to inhibit P672 interactions with CCL2 and CCL3 using AlphaScreen (FIG. 20 F, G, I, J).
(§4) AlphaScreen® Histidine detection kit was purchased from PerkinElmer (6760619M lot: 2457886) and the assay was set up in white bottom Proxiplate™ 384 Plus microplates (PerkinElmer) following the manufacturer's instructions. The assay buffer used was 50 mM HEPES, 150 mM NaCl, 0.1% BSA, 0.01% Tween20, 1% DMSO, pH 7.5 and the final volume in each well was 20 μL. Briefly, biotinylated chemokine (recombinant, final concentration 1.25 nM (CCL8), 5 nM (CCL2) and 2.5 nM (CCL3)) was pre-incubated at room temperature for 15 min with different concentrations of each peptide. His-tagged P672 (final concentration 2.5 nM (CCL8), 5 nM (CCL2) and 1.25 nM (CCL3)) was then added to each well and the plate was incubated at room temperature for 30 min. Finally, acceptor and donor beads were added as a 1:1 suspension in buffer to each well and the plate was further incubated at RT for 1 h. Data was obtained by reading the plate using a Pherastar FSX plate reader (excitation 680 nm, emission 570 nm) and was analysed using GraphPad Prism.

[2] = biological target: T3, His-tagged P672-biotinylated CCL2 interaction (Homo sapiens, UniProt P13500); assay: as above; type: binding
T3 construct: host or cells: P672: HEK293F (in-house); biotinylated CCL2: not described
Method: as §1, §2, §3, §4

T3 sequence (P13500 24-99): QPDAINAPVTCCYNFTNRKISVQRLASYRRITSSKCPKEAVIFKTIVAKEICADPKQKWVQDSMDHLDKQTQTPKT

Substance: EDEDYEDFFKPVTAYF-NH2 [BK1.1]
- IC50 (CCL8_HUMAN): 510 nM
- Inhibition of P672 interaction with CCL3 (BK1 derivatives) [1]: did not inhibit
- Inhibition of P672 interaction with CCL2 (BK1 derivatives) ([2]; AlphaScreen dose-response): did not inhibit
- Disruption of the P672-CCL2 interaction ([2]; AlphaScreen, peptide 100 μM): disrupted
